“And” between values parts separate entries of the source, which are not always exact repeats. Equal values may be shown once. Read-outs that look alike come from different tables or passages of the source.

One data set concerns Staphylococcus aureus. The data set is classed as cell-based.
The format of data set [1] is physicochemical.

In the case of `O=S(=O)([O-])[O-].[Cu+2]` [CuSO4, copper sulfate], in the data set on Staphylococcus aureus, the “activity along EN 13727 (Active/Inefficient)” value is on record as “Inefficient”.

Turning to `OO` [H2O2, hydrogen peroxide], in the data set on Staphylococcus aureus, the “activity along EN 13727 (Active/Inefficient)” value is listed as “Active” and the “activity along EN 13727, log reduction” value is more than 5 log.

Consider sodium alkylethersulfate, for which the hydrogen peroxide concentration in data set [1] (T0) is 7.6%; in data set [1] (T = 15 min), 7.6%; in data set [1] (T = 24 h), 7.3% and 7.6%; in data set [1] (T = 72 h) it was 6.9% and 7.6%.

“sodium alkylsulfate [Sodium alkyl (dodecyl) sulfate]”: the hydrogen peroxide concentration in data set [1] (T0) was 7.6%; in data set [1] (T = 15 min), 7.6%; in data set [1] (T = 24 h), 7.6%; in data set [1] (T = 72 h) it was 7.4% and 7.6%.

(Values after patent publication US20110117209A1 (priority 2008, published 2011).)
